{"source": "paper PMC11091117", "about": "“A fluorescently-tagged tick kinin neuropeptide triggers peristalsis and labels tick midgut muscles” (Scientific Reports, 2024)", "key": {"[1]": {"tested_on": "tick kinin receptor (recombinant R. microplus receptor, CHO-K1 BMLK3 cells)", "test": "Cellular end-point fluorescence calcium mobilization assay, BMLK3 cells", "format": "cell-based, Rhipicephalus microplus", "description": "Three peptides were used in this study. These included: 1) the ligand for the endogenous tick kinin receptor from Rhipicephalus sanguineus, Rhisa-kinin 8 peptide of sequence GTGEDQAFSPWGamide (Rhisa-K-8; RK8; of identical sequence to Rhimi-K-8 in Rhipicephalus microplus)[48], 2) the same peptide but fluorescently labeled at the N-terminus with tetramethylrhodamine (TMR) a red fluorescent dye, designated TMR-Rhisa-K-8 (TMR-RK8), and 3) a labeled peptide synthesized with the scrambled sequence of the kinin ligand, designated TMR-Scrambled. The sequence of TMR-RK8 was TMR-C-GTGEDQAFSPWGamide). The TMR-Scrambled kinin (TMR-C-GTQWGPGFEADSamide) served as a negative control for tissue labeling. All peptides were custom-synthesized and purchased from GenScript (Piscataway, NJ, USA) with a purity of ≥ 95% and the cysteine in bold in both sequences was added to attach the label. Experiments were replicated with independently synthesized batches (4 mg each) of labeled and unlabeled peptides, for reproducibility. Unlabeled RK8 was used as a competitive ligand to verify target-specific binding of the labeled TMR-RK8 (see Ligand Competition Assay). For cell assays, the peptide stock solutions (100 µM) were made in 1% dimethyl sulfoxide (DMSO) in Hank’s balanced salt solution (HBSS, Thermo Fisher, Waltham, USA). For fluorescent cell labeling, peptide working solutions (10 µM) were prepared in HBSS from stock solutions. For assays on the midgut, peptides were solubilized and diluted in a tick physiological saline consisting of 140 mM NaCl, 5 mM KCl, 1 mM MgCl2, 5 mM CaCl2, 4 mM NaHCO3, and 5 mM HEPES, pH 7.2[49].\nThe tick kinin receptor is stably expressed in the recombinant CHO-K1 cell line designated BMLK3 (Boophilus microplus leucokinin receptor 3) that was constructed and selected as described by Holmes, et al.[47]. The CHO-K1 cells had been obtained from the American Type Culture Collection (ATCC) for transfection with the expression construct. This cell line has been kept in the laboratory since 2003. Cells that were transfected only with an empty plasmid are referred to as “vector-only” (V/O) cells and were used as a negative control. Before all experiments, the BMLK3 cell line or V/O cells were separately cultured in T-75 flasks with selective medium (F-12 K medium containing 10% FBS and 800 μgmL^−1 of G418 sulfate) for one to two passages in a humidified incubator at 37 °C and 5% CO2.\nA fluorescence-based intracellular calcium mobilization end-point assay described by Xiong, et al.[50] was used to confirm the activity of the TMR-labeled RK8 peptide on a cell line expressing the tick kinin receptor. For this, BMLK3 and V/O cells were cultured in F-12 K medium (1% FBS and 400 μgmL^−1- of G418 Sulfate). The cells were seeded in a 96-well plate with 20,000 cells per well and incubated overnight at 37 °C and 5% CO2. The next morning, cells were prepared for the assay following the manufacturer’s instructions for the Fluo-8 Calcium Flux Assay Kit – NoWash (Abcam, Cambridge, United Kingdom). The F-12 K medium in the plate was removed by inverting the plate and gently blotting on paper towels. […] The calcium fluorescence signal was detected by a CLARIOstar (BMG LABTECH, Chicago, IL, United States) plate reader set to read at the fluorescence plate-mode with excitation and emission wavelengths of 490 and 525 nm at 29 °C. Calcium responses were read immediately after the addition of 10 µL of either TMR-RK8, unlabeled RK8, or blank solvent (1% DMSO in HBSS). […]"}, "[2]": {"tested_on": "tick kinin receptors on midgut muscles", "test": "Ligand competition assay on midgut", "format": "binding, Rhipicephalus sanguineus", "conditions": "TMR-RK8 10 µM 1 min, then unlabeled RK8 100 µM 1 min, tick saline, confocal 20x", "description": "Individual female ticks were immobilized on a Petri dish filled with wax by submerging their legs in melted wax heated with a soldering pencil (Electronic Control Soldering Station EC 1000, Weller, Apex, North Carolina, USA). Females were dissected under physiological saline following the protocol described by Tidwell et al.[51]. The tick was cut along the edge of the scutum/alloscutum using a stainless steel #12 scalpel blade (Integra Miltex, York, PA, USA), after which the scutum was removed with a pair of fine forceps. To expose the midgut for removal, the tracheae, Malpighian tubules, ovaries, rectal sac, and synganglion were removed with fine forceps in that order. The midgut was then carefully removed and placed into 200 µL of fresh tick saline (See Reagents and Peptides) on a single gasketed incubation chamber (500 µL, Size 22 × 40 mm, Electron Microscopy Sciences, Hatfield, PA). […]\nFluorescently-labeled midgut tissues were imaged using a Leica SP8 inverted confocal microscope. For fluorescence excitation, the 405 nm fixed-wavelength laser was used for DAPI and a white light laser selective for wavelengths between 470 and 670 nm was used for tetramethylrhodamine and phalloidin. […] Images were analyzed and computer-colored using Fiji/ImageJ (National Institutes of Health, Bethesda, MD). […]"}, "[3]": {"tested_on": "vector-only (V/O) CHO-K1 cells", "test": "Cellular end-point fluorescence calcium mobilization assay, vector-only control cells", "format": "cell-based", "conditions": "10 µM peptide, Fluo-8, 29 °C, 60 s, 4 technical replicates", "description": "Three peptides were used in this study. These included: 1) the ligand for the endogenous tick kinin receptor from Rhipicephalus sanguineus, Rhisa-kinin 8 peptide of sequence GTGEDQAFSPWGamide (Rhisa-K-8; RK8; of identical sequence to Rhimi-K-8 in Rhipicephalus microplus)[48], 2) the same peptide but fluorescently labeled at the N-terminus with tetramethylrhodamine (TMR) a red fluorescent dye, designated TMR-Rhisa-K-8 (TMR-RK8), and 3) a labeled peptide synthesized with the scrambled sequence of the kinin ligand, designated TMR-Scrambled. The sequence of TMR-RK8 was TMR-C-GTGEDQAFSPWGamide). The TMR-Scrambled kinin (TMR-C-GTQWGPGFEADSamide) served as a negative control for tissue labeling. […]\nA fluorescence-based intracellular calcium mobilization end-point assay described by Xiong, et al.[50] was used to confirm the activity of the TMR-labeled RK8 peptide on a cell line expressing the tick kinin receptor. […] The calcium fluorescence signal was detected by a CLARIOstar (BMG LABTECH, Chicago, IL, United States) plate reader set to read at the fluorescence plate-mode with excitation and emission wavelengths of 490 and 525 nm at 29 °C. Calcium responses were read immediately after the addition of 10 µL of either TMR-RK8, unlabeled RK8, or blank solvent (1% DMSO in HBSS). […]"}, "[4]": {"tested_on": "R. microplus recombinant receptor", "design": "method as in PMID 31794138", "conditions": "cited from earlier work"}}, "note": "“Also recorded” adds a separate entry of the source. Where no end group is shown, it is not given here."}
{"substance": "GTGEDQAFSPWG-NH2 [RK8, endogenous ligand of the tick kinin receptor from Rhipicephalus sanguineus, identical to Rhimi-K-8 of R. microplus]", "values": [{"measurement": "intracellular calcium fluorescence response / receptor activation (in words)", "setting": "[1]; 10 nM to 10 μM (four concentrations), 1% DMSO in HBSS, Fluo-8, Ex 490/Em 525 nm, 29 °C, read 60 s at 1 s intervals, average raw fluorescence units of 4 technical replicates, simple linear regression", "result": "elicited a dose-dependent intracellular calcium fluorescence response"}, {"measurement": "fluorescence units at highest concentration, TMR-RK8 compared with RK8 (in words)", "setting": "[1]; highest concentration assayed 10 µM, Fluo-8, 4 technical replicates", "result": "maximal and similar for the highest concentration assayed of 10 µM"}, {"measurement": "displacement of TMR-RK8 muscle labeling by unlabeled RK8 (in words)", "setting": "[2]", "result": "substantial reduction in the fluorescent signal observed on muscles; also recorded: greatly reduced the fluorescent signal of muscles; also recorded: competitive inhibition of fluorescent signal on muscle tissue"}, {"measurement": "displacement of TMR-RK8 muscle labeling by unlabeled RK8 (in words)", "setting": "[2]; listed as kinin 8", "result": "competed TMR-RK8, decreasing confocal microscopy signal intensity"}, {"measurement": "calcium fluorescence response of vector-only cells (in words)", "setting": "[3]", "result": "invariable background fluorescence"}, {"measurement": "activity on the R. microplus recombinant receptor (in words)", "setting": "[4]", "result": "highly active at the nanomolar level"}]}
